# Reference: ChEMBL document CHEMBL3217469, “Redesigning the designer drug ecstasy: non-psychoactive MDMA analogues exhibiting Burkitt's lymphoma cytotoxicity” (Medchemcomm, 2010)
# pIC50, pKi: −log10 of the molar value.
# Columns and labels:
# [1] = Cytotoxicity against human L3055 cells assessed as reduction in [3H]thymidine incorporation after 24 hrs by propidium iodide staining-based assay; type: functional, cell-based
# Rattus norvegicus [2] = species: Rattus norvegicus; test: Induction of psychotic activity in Wistar rat assessed as reduction in prepulse inhibition of acoustic startle reflex; type: organism-based; conditions: in vivo
# [3] = target: 5-hydroxytryptamine receptor 2A (Rattus norvegicus, UniProt P14842); test: Displacement of [3H]-ketanserin from 5-HT2A receptor in Sprague-Dawley rat cerebral cortex after 45 mins by scintillation counting analysis; type: tissue-based
# Sequence of 5-hydroxytryptamine receptor 2A (P14842 whole entry): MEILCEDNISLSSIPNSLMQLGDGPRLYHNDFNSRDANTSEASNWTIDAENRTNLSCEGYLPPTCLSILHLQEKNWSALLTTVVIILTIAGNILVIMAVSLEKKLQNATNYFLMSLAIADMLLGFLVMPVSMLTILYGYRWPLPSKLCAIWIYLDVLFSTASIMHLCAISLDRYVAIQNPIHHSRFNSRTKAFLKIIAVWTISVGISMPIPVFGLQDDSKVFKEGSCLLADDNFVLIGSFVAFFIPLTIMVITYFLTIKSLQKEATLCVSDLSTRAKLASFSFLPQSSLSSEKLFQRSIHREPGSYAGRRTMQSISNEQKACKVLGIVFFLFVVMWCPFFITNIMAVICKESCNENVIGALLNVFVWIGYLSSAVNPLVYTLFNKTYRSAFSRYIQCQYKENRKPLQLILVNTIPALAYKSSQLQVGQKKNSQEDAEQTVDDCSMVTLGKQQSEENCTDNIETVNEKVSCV
# Serotonin 1B/1D receptor = Serotonin 1B/1D receptor (Rattus norvegicus, UniProt P28564+P28565); test: Displacement of [3H]GR125743 from 5-HT1B/1D receptor in Sprague-Dawley rat whole brain after 60 mins by scintillation counting analysis
# SH-SY5Y = test: Neurotoxicity against human SH-SY5Y cells at 1 to 600 uM after 24 hrs by Alamar Blue assay; type: toxicity, cell-based
# [4] = target: Sodium-dependent serotonin transporter (Rattus norvegicus, UniProt P31652); test: Displacement of [3H]citalopram from SERT in Sprague-Dawley rat whole brain after 60 mins by scintillation counting analysis
# Sequence of Sodium-dependent serotonin transporter (P31652 whole entry): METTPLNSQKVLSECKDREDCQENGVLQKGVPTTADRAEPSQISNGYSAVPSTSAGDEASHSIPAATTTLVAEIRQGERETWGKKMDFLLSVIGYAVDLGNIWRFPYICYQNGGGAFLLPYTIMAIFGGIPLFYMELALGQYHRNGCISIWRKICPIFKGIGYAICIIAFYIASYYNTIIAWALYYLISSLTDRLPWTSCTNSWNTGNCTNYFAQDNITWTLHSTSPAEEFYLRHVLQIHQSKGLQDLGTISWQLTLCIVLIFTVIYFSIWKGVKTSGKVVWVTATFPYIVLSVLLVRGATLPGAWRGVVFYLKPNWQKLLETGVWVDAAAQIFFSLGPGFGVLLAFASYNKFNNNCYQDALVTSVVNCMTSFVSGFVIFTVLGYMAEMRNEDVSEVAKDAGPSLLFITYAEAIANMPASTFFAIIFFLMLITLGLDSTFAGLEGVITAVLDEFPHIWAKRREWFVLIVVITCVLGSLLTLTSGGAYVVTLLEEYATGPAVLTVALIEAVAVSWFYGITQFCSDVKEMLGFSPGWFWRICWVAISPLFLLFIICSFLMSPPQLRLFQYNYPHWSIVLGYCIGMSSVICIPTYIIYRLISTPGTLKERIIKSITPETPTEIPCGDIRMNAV
# [5] = target: Sodium-dependent dopamine transporter (Rattus norvegicus, UniProt P23977); test: Displacement of [3H]GBR12935 from DAT in Sprague-Dawley rat striatum after 45 mins by scintillation counting analysis
# Sequence of Sodium-dependent dopamine transporter (P23977 whole entry): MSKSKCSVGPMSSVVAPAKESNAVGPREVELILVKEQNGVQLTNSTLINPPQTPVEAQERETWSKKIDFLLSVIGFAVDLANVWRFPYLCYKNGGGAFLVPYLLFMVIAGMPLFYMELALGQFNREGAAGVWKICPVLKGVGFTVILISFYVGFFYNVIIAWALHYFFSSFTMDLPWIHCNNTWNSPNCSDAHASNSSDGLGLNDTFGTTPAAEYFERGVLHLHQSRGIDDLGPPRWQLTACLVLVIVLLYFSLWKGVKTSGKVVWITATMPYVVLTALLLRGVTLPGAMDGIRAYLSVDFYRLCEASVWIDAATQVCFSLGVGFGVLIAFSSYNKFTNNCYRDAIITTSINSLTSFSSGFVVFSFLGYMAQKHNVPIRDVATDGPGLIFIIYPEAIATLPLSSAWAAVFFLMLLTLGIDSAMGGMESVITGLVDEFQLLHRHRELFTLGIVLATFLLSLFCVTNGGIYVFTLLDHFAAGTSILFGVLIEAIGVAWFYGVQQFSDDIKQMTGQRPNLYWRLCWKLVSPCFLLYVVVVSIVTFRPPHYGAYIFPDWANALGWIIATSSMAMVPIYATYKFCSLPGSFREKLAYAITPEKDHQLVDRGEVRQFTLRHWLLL
# [6] = target: T1, 5-hydroxytryptamine receptor 2C (Rattus norvegicus, UniProt P08909); test: Displacement of [3H]mesulergine from 5-HT2C receptor in Sprague-Dawley rat whole brain after 60 mins by scintillation counting analysis
# T1 sequence (P08909 whole entry): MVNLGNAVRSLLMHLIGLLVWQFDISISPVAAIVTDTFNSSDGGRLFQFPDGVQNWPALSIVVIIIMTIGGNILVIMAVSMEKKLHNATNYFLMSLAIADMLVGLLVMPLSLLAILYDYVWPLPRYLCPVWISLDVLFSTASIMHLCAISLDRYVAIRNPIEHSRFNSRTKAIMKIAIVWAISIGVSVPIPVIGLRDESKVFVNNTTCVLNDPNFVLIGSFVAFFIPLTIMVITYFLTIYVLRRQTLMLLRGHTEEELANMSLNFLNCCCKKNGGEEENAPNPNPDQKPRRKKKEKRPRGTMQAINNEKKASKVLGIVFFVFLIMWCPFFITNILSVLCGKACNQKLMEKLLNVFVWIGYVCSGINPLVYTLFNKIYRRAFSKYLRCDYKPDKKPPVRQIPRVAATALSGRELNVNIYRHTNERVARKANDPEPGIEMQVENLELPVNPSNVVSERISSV
# Transporter = Transporter (Rattus norvegicus, UniProt Q63380); test: Displacement of [3H]nisoxetine from NET in Sprague-Dawley rat cerebellum after 60 mins by scintillation counting analysis
# Sequence of Transporter (Q63380 whole entry): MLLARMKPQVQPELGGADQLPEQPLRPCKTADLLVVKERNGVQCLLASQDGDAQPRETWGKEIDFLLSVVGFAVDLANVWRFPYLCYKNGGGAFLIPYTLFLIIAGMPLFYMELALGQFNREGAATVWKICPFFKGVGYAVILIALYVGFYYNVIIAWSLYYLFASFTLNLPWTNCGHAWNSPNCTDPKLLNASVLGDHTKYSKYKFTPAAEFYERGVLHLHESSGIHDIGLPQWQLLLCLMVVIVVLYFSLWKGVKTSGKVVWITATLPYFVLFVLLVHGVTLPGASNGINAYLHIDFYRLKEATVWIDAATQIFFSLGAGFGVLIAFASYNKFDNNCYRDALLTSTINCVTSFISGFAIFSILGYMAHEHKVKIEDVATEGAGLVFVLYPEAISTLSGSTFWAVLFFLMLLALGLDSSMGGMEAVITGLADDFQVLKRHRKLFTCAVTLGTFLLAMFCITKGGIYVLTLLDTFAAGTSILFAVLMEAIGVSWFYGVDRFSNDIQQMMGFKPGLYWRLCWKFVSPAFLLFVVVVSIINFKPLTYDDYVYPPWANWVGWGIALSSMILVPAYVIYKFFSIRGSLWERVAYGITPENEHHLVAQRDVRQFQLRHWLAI
# [7] = target: T2, 5-hydroxytryptamine receptor 1A (Rattus norvegicus, UniProt P19327); test: Displacement of [3H]WAY100635 from 5-HT1A receptor in Sprague-Dawley rat cerebral cortex after 60 mins by scintillation counting analysis; type: tissue-based
# T2 sequence (P19327 whole entry): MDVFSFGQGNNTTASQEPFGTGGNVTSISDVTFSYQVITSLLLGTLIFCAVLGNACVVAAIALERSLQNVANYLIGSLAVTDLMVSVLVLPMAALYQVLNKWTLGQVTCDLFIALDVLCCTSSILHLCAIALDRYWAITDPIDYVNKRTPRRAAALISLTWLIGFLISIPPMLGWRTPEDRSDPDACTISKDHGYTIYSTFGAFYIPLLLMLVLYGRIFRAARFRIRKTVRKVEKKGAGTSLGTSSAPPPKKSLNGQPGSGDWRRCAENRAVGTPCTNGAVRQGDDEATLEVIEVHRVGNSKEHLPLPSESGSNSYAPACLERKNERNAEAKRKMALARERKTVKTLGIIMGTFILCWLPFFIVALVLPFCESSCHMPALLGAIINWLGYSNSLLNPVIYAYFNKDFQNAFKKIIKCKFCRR
# [8] = Ratio of MDMA IC50 to compound IC50 for human L3055 cells; type: functional
# Rattus norvegicus [9] = test: Induction of psychotic activity in Wistar rat assessed as reduction in prepulse inhibition of acoustic startle reflex at 4.4 to 88 umol/kg; type: organism-based; conditions: in vivo
smiles,measurement,setting,value
CNC(Cc1ccc2c(c1)OCO2)c1ccccc1OC (racemic),pIC50,[1],4.04
COc1ccc(CC(C)N)cc1 (centres undefined) [PARA-METHOXYAMPHETAMINE],Activity,Rattus norvegicus [2],Dose-dependent effect
CNC(Cc1ccc2c(c1)OCO2)C1CC1 (racemic),pIC50,[1],3.10
CNC(Cc1ccccc1)Cc1ccc2c(c1)OCO2 (racemic),pIC50,[1],4.16
CCCC(Cc1ccc2c(c1)OCO2)NC (racemic),pIC50,[1],3.42
CNC(C)Cc1ccc2c(c1)OCO2.Cl (centres undefined) [MIDOMAFETAMINE HYDROCHLORIDE],pKi,[3],< 5.00
same,Ki,Serotonin 1B/1D receptor,> 10 µM
same,Activity,SH-SY5Y,Toxic
same,pKi,[4],6.68
same,pKi,[5],< 5.00
same,Activity,Rattus norvegicus [2],Dose-dependent effect
same,pKi,[6],< 5.00
same,pKi,Transporter,< 5.00
same,pIC50,[1],3.29
same,pKi,[7],< 5.00
CCC(Cc1ccc2c(c1)OCO2)NC (racemic),pIC50,[1],3.15
CNC(Cc1ccc2c(c1)OCO2)c1cccc(C)c1 (racemic),pIC50,[1],4.29
CNC(Cc1ccc2c(c1)OCO2)C1CCCCC1 (racemic),pIC50,[1],4.09
CNC(Cc1ccc2c(c1)OCO2)C(C)(C)C (racemic),pIC50,[1],3.35
CNC(Cc1ccc2c(c1)OCO2)c1ccc2ccccc2c1.Cl (racemic),Ratio IC50,[8],100
same,Activity,SH-SY5Y,Non-toxic
same,pIC50,[1],5.18
CNC(Cc1ccc2c(c1)OCO2)c1cccc(OC)c1 (racemic),pIC50,[1],4.10
CNC(Cc1ccc2c(c1)OCO2)Cc1ccc2c(c1)OCO2,pIC50,[1],4.44
CNC(Cc1ccc2c(c1)OCO2)C(C)C (racemic),pIC50,[1],3.19
CNC(Cc1ccc2c(c1)OCO2)c1ccc(C)cc1 (racemic),pIC50,[1],4.38
CNC(Cc1ccc2c(c1)OCO2)c1ccc(F)cc1 (racemic),pIC50,[1],4.20
CNC(Cc1ccc2c(c1)OCO2)c1ccc(-c2ccccc2)cc1 (racemic),pIC50,[1],5.22
CNC(Cc1ccc2c(c1)OCO2)c1ccc(OC)cc1 (racemic),pIC50,[1],4.16
CNC(Cc1ccc2c(c1)OCO2)c1ccccc1.Cl (racemic),pKi,[3],5.91
same,Ratio IC50,[8],7
same,Ki,Serotonin 1B/1D receptor,> 10 µM
same,Activity,SH-SY5Y,Toxic
same,pKi,[4],5.88
same,Activity,Rattus norvegicus [9],Non-toxic
same,pKi,[5],< 5.00
same,pKi,[6],< 5.00
same,pKi,Transporter,6.15
same,pIC50,[1],4.12
same,pKi,[7],< 5.00
CNC(Cc1ccc2c(c1)OCO2)c1cccc2ccccc12.Cl (racemic),Ratio IC50,[8],100
same,Activity,SH-SY5Y,Non-toxic
same,pIC50,[1],4.90
CNC(Cc1ccc2c(c1)OCO2)c1ccccc1C (racemic),pIC50,[1],4.19
